Read-outs that look alike come from different tables or passages of the source.
Tests used:
[1] = target: BCL2 F104I (Homo sapiens, UniProt P10415, F104I); experiment: TR-FRET competitive binding assay, BCL2 F104I; settings: Ki determined from IC50, read-out: TR_FRET EKI_Bcl2 F104I
Experimental: The relative binding potency of each compound was determined in a competitive binding assay using time resolved-fluorescence resonance energy transfer (TR-FRET). The method utilised a fluorescein labelled peptide derived from PUMA (5Flu-Ahx-[…]-NH2 wherein Ahx means 6-hexanoic acid monomer and the amino acid sequence is referred to as SEQ ID:01) which binds to a terbium labelled BCL2 or BCLXL protein. The degree of binding or corresponding compound inhibition can be quantified by the TR-FRET signal between the terbium donor and fluorescein acceptor.
The human BCL2_wild-type (also named BCL2_wt), BCL2_G101V mutant and BCLXL_wild-type were E. coli expressed as a N-terminal Halo-fusion proteins and singly labelled with Terbium on the Halo protein to afford the following amino acid sequences:
wherein the BCL2(1-207) sequence corresponds to UniProtKB® primary accession number P10415 and the BCLXL(2-196) sequence corresponds to UniProtKB® primary accession number Q07817-1.
The assay was performed in a 40 μL volume in white 384-standard well plates (Corning #3574). An 11-point serial dilution of each compound was prepared in DMSO and transferred directly to plate followed by addition of fluorescein labelled peptide and lastly protein. Final assay conditions were 0.5 nM BCL2_wt, BCL2_G101V, BCL2_D103Y, BCL2_F104I, BCL2_D111A or BCLXL_wt, 2 or 20 nM fluorescein labelled peptide, 50 mM Hepes pH 7.5, 150 mM NaCl, 0.5 mM TCEP (Tris(2-carboxyethyl)phosphine), 0.05% Tween 20, 5% DMSO. The mixture was incubated for 2 hours at 23° C.
TR-FRET measurements were performed on a Biotek Synergy Neo plate reader. TR-FRET was measured by excitation of the Terbium-donor at 340 nm and subsequent (delay time 100 μs) measurement of terbium and fluorescein emission at 495 nm and 520 nm, respectively, over a collection time of 300 μs. The TR-FRET signal was calculated as the emission-ratio at 520 nm over 495 nm.
The TR-FRET ratio readout for test compounds was normalized against 0% inhibition controls wells and 100% inhibition control wells. Test compound potency (IC50) was estimated by nonlinear regression using the sigmoidal dose-response (variable slope) using Xlfit 4 (IDBS, Guildford, Surrey, UK, model 205). Were the IC50 could not be determined the % inhibition at the highest tested concentration is given.
y=(A+((B−A)/(1+((C/x)^D))))
where y is the normalized TR-TRET ratio measurement for a given concentration of test compound, x is the concentration of test compound, A is the estimated efficacy (% inhibition) at infinite compound dilution, and B is the maximal efficacy (% inhibition). C is the IC50 value and D is the Hill slope coefficient.
The K1 values were determined from the IC50 values according to Cer et al, Nucleic Acids Res, 2009, July 1; 37 (WebServer issue): W441-W445.

[2] = test system: KMS-12-PE Bcl-2 WT; experiment: In vitro cytotoxicity CellTiter-Glo 48 h, KMS-12-PE Bcl-2 WT; format: cell-based; settings: Homo sapiens, KMS-12-PE, C50 = concentration needed to reach 50% of the cellular viability
Method in brief: (§1)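 Potency is expressed as C50, the compound concentration at which viability of engineered KMS-12-PE cells (Bcl-2 wild type or G101V) falls to 50%, determined from CellTiter-Glo luminescence after 48 h of treatment over 11 concentrations.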

[3] = test system: KMS-12-PE Bcl-2 G101V; experiment: In vitro cytotoxicity CellTiter-Glo 48 h, KMS-12-PE Bcl-2 G101V; format: cell-based; settings: for Ratio (G101V/WT): C50 KMS-12-PE Bcl-2 G101V over C50 KMS-12-PE Bcl-2 WT; for IC50: Homo sapiens, KMS-12-PE, 48 h, CellTiter-Glo, C50 = concentration needed to reach 50% of the cellular viability
Method in brief: as §1

[4] = target: BCL2 G101V (Homo sapiens, UniProt P10415, G101V); experiment: TR-FRET competitive binding assay, BCL2 G101V; settings: BCL2 G101V; Ki determined from IC50; read-out: TR_FRET EKI_Bcl2 G101V
Method in brief: (§2)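 Competitive TR-FRET displacement of fluorescein-PUMA peptide (2 or 20 nM) from 0.5 nM terbium-labelled N-terminal Halo-fusion BCL2 (1-207, wild type or mutant) or BCLXL (2-196), expressed in E. coli. Buffer 50 mM Hepes pH 7.5, 150 mM NaCl, 5% DMSO; 2 h at 23°C. 520/495 nm ratio fitted over 11 points for IC50, converted to Ki.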

[5] = test system: BCL2 G101V; experiment: TR-FRET competitive binding assay, BCL2 G101V; design: species or system human; settings: for TR_FRET EKI G101V/WT selectivty ratio: ratio Ki BCL2 G101V / Ki BCL2 WT; for TR_FRET EKI G101V/WT selectivty: ratio of Ki BCL2 G101V to BCL2 WT
Method in brief: as §2

[6] = target: BCL2 WT (Homo sapiens (Human), UniProt P10415); experiment: TR-FRET competitive binding assay, BCL2 WT
Method in brief: as §2

[7] = target: BCL2 D103Y (Homo sapiens, UniProt P10415, D103Y); experiment: TR-FRET competitive binding assay, BCL2 D103Y; settings: Ki determined from IC50, read-out: TR_FRET EKI_Bcl2 D103Y
Method in brief: as §2

[8] = target: BCLXL WT (Homo sapiens (Human), UniProt Q07817); experiment: TR-FRET competitive binding assay, BCLXL WT; settings: for Ki: BCLXL WT, Ki determined from IC50, read-out: TR_FRET EKI BclxL; for TR_FRET EKI BCLxL/WT selectivty ratio: ratio Ki BCLxL / Ki BCL2 WT; for TR_FRET EKI BCLxL/WT selectivty: ratio of Ki BCLxL to BCL2 WT
Chain of BCLXL WT (Q07817 other isoform, or with tags, fused parts or gaps): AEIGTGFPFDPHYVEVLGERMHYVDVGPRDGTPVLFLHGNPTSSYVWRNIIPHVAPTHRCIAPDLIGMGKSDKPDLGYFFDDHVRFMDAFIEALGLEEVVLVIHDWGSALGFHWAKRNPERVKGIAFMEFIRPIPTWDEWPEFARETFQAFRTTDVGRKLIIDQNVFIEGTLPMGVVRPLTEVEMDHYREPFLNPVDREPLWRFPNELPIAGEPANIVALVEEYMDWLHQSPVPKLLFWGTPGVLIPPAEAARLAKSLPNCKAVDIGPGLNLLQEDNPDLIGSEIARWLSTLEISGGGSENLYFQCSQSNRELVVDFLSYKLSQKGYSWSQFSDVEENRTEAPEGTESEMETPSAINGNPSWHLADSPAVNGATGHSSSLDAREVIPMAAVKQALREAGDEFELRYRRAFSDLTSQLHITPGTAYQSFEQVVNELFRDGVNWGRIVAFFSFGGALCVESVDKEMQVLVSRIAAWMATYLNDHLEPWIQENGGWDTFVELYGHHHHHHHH
Method in brief: as §2

[9] = Ki determined from IC50, read-out: TR_FRET EKI_Bcl2 WT
[10] = Ki determined from IC50, read-out: TR_FRET EKI_Bcl2

Structure (SMILES)	Ki [1]	IC50 [2]	Ratio (G101V/WT) [3]	IC50 [3]	Ki [4]	TR_FRET EKI G101V/WT selectivty ratio [5]	Ki [6, 9]	Ki [7]	Ki [8]	TR_FRET EKI BCLxL/WT selectivty ratio [8]	TR_FRET EKI BCLxL/WT selectivty [8]	TR_FRET EKI G101V/WT selectivty [5]	Ki [6, 10]
Cc1cccc(CC(=O)N2CCc3cc(-c4cc(C(=O)N(c5ccc(O)cc5)c5cc(C#N)n(C)c5C)c(C)n4C)c(C(=O)N4Cc5ccccc5C[C@H]4C)cc3C2)c1 [Example 1, N-(5-cyano-1,2-dimethyl-1H-pyrrol-3-yl)-N-(4-hydroxyphenyl)-1,2-dimethyl-5-{7-[(3R)-3-methyl-1,2,3,4-tetrahydroisoquinoline-2-carbonyl]-2-[2-(3-methylphenyl)acetyl]-1,2,3,4-tetrahydroisoquinolin-6-yl}-1H-pyrrole-3-carboxamide]	6.12 nM	0.0087 µM	8.92	0.0776 µM	2.2 nM	6.5	0.34 nM	–	–	–	–	–	–
Cc1c(C(=O)N(c2ccccc2)c2cc(C#N)n(CCO)c2C)cc(-c2cc3c(cc2C(=O)N2Cc4ccccc4C[C@H]2C)CN(C(=O)Cc2ccccc2)CC3)n1C [Example 4, N-[5-cyano-1-(2-hydroxyethyl)-2-methyl-pyrrol-3-yl]-1,2-dimethyl-5-[7-[(3R)-3-methyl-3,4-dihydro-1H-isoquinoline-2-carbonyl]-2-(2-phenylacetyl)-3,4-dihydro-1H-isoquinolin-6-yl]-N-phenyl-pyrrole-3-carboxamide]	11.9 nM	0.0048 µM	25.9	0.124 µM	3.2 nM	30.2	0.11 nM	–	–	–	–	–	–
Cc1c(N(C(=O)c2cc(-c3cc4c(cc3C(=O)N3Cc5ccccc5C[C@H]3C)CN(C(=O)Cc3ccc(F)cc3)CC4)n(C)c2C)c2ccc(O)cc2)cc(C#N)n1C [Example 5, N-(5-cyano-1,2-dimethyl-1H-pyrrol-3-yl)-5-{2-[2-(4-fluorophenyl)acetyl]-7-[(3R)-3-methyl-1,2,3,4-tetrahydroisoquinoline-2-carbonyl]-1,2,3,4-tetrahydroisoquinolin-6-yl}-N-(4-hydroxyphenyl)-1,2-dimethyl-1H-pyrrole-3-carboxamide]	4.45 nM	0.0057 µM	4.98	0.0285 µM	1.3 nM	7.3	0.18 nM	–	–	–	–	–	–
Cc1ncc(N(C(=O)c2cc(-c3cc4c(cc3C(=O)N3Cc5ccccc5C[C@H]3CN3CCCCC3)CN(C(=O)Cc3ccc(OCCN5CCOCC5)cc3F)CC4)n(C)c2C)c2ccc(O)cc2)cc1C#N [Example 177, N-(5-cyano-6-methyl-3-pyridyl)-5-[2-[2-[2-fluoro-4-(2-morpholinoethoxy)phenyl]acetyl]-7-[(3S)-3-(1-piperidylmethyl)-3,4-dihydro-1H-isoquinoline-2-carbonyl]-3,4-dihydro-1H-isoquinolin-6-yl]-N-(4-hydroxyphenyl)-1,2-dimethyl-pyrrole-3-carboxamide]	–	0.0052 µM	11.238	0.0581 µM	0.5 nM	10.0	0.05 nM	0.12 nM	12.4 nM	229.0	–	–	–
COc1ccc(N(C(=O)c2cc(-c3cc4c(cc3C(=O)N3Cc5ccccc5C[C@H]3CN(C)C(C)C)CN(C(=O)Cc3ccc(OCCN5CCOCC5)cc3F)CC4)n(C)c2C)c2ccc(O)cc2)cc1C#N [Example 179, N-(3-cyano-4-methoxy-phenyl)-5-[2-[2-[2-fluoro-4-(2-morpholinoethoxy)phenyl]acetyl]-7-[(3S)-3-[[isopropyl(methyl)amino]methyl]-3,4-dihydro-1H-isoquinoline-2-carbonyl]-3,4-dihydro-1H-isoquinolin-6-yl]-N-(4-hydroxyphenyl)-1,2-dimethyl-pyrrole-3-carboxamide]	–	0.0117 µM	9.658	0.113 µM	0.6 nM	14.7	0.04 nM	0.13 nM	6.1 nM	148.0	–	–	–
Cc1c(N(C(=O)c2cc(-c3cc4c(cc3C(=O)N3Cc5ccccc5C[C@H]3CN)CN(C(=O)Cc3ccc(OCCN5CCOCC5)cc3F)CC4)n(C)c2C)c2ccc(O)cc2)cc(C#N)n1C [Example 230]	–	0.351 µM	2.7	0.964 µM	0.067 nM	–	–	0.066 nM	0.9 nM	–	64.3	4.8	0.014 nM
Cc1c(N(C(=O)c2cc(-c3cc4c(cc3C(=O)N3Cc5ccccc5C[C@H]3C)CN(C(=O)Cc3ccc(OCCNCCF)cc3)CC4)n(C)c2C)c2ccc(O)cc2)cc(C#N)n1C [Example 235]	–	0.0208 µM	4.7	0.0968 µM	0.13 nM	–	–	0.11 nM	0.89 nM	–	28.7	4.2	0.031 nM

— patent US20250179047A1, “5-[7-(3,4-DIHYDRO-1H-ISOQUINOLINE-2-CARBONYL)-1,2,3,4 TETRAHYDROISOQUINOLIN-6-YL]-1H-PYRROLE-3-CARBOXAMIDE DERIVATIVES, PHARMACEUTICAL COMPOSITIONS CONTAINING THEM AND THEIR USES AS PRO-APOPTOTIC AGENTS” (LES LABORATOIRES SERVIER, priority 2022, published 2025)
